Results from patent US10344060B2 (priority 2013, dated 2019).
Like-named read-outs stand apart in the source and are kept apart here.

Target: hNav1.7 (Homo sapiens, UniProt Q15858)
Experiment: cell-based
Assay type: cell-based
Conditions: for IC50: read-out: PX hNav1.7 Tonic IC50
[1] = Table 12, PatchXpress, tonic block
[2] = ratio of PX tonic IC50 values, Table 11

hNav1.7, sequence (Q15858 whole entry): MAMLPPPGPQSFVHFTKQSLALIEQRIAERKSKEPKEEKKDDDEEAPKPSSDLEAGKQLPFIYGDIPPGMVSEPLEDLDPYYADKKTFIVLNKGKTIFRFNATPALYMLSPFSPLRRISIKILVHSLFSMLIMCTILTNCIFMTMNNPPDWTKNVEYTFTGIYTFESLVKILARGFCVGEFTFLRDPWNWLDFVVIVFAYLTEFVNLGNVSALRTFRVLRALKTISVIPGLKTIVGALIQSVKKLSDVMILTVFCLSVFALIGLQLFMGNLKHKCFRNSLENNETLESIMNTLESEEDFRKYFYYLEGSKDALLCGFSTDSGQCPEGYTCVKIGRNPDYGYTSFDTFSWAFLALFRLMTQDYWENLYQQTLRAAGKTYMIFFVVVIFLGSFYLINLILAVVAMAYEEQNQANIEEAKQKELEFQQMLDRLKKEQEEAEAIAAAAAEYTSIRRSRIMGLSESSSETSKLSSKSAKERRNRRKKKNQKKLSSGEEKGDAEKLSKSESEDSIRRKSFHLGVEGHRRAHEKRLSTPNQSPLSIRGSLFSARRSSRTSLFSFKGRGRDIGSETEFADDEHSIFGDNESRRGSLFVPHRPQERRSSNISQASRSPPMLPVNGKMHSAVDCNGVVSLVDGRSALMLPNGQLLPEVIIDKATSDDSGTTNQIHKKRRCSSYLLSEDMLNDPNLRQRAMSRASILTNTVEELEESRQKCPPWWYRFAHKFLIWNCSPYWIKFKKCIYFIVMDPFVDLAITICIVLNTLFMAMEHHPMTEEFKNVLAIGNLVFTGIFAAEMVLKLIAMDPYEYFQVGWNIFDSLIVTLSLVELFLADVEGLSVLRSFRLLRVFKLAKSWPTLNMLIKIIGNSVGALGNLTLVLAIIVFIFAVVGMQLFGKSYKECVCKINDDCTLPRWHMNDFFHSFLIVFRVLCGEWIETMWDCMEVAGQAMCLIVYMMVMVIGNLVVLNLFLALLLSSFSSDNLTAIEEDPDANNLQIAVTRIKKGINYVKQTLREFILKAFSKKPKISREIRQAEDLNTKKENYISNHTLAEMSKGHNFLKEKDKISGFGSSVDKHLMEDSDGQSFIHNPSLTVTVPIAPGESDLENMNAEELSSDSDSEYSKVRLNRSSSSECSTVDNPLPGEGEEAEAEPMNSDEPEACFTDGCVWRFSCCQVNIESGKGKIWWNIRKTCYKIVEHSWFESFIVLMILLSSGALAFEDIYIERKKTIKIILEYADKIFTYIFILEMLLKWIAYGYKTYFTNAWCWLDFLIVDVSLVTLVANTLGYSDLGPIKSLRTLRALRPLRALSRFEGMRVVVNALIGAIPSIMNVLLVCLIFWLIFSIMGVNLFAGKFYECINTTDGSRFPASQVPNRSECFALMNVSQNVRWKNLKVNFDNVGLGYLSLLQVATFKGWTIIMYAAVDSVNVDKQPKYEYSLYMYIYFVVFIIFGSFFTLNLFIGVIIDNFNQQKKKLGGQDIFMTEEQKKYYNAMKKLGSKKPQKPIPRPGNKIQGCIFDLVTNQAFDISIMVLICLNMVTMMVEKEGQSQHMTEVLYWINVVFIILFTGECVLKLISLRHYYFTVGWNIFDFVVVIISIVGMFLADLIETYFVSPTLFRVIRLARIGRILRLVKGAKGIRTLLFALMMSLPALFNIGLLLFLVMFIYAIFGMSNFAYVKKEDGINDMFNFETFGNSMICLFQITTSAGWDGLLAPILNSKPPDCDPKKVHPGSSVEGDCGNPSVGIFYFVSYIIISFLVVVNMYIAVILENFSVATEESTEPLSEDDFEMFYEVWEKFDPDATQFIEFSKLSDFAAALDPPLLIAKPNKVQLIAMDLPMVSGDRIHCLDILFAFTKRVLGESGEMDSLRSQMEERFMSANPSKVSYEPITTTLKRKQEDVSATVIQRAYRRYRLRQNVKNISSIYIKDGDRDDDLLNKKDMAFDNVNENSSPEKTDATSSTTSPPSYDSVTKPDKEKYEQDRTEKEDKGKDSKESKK

| SMILES | IC50 [1] [nM] | Nav1.4/Nav1.7 [2] | other results |
| --- | --- | --- | --- |
| C#CC[C@@H]1NC(=O)[C@H](CO)NC(=O)[C@H](CC(=O)O)NC(=O)[C@@H]2CSSC[C@@H]3NC(=O)[C@H](CCCNC(=N)N)NC(=O)[C@H](CC(C)C)NC(=O)CNC(=O)[C@H](CCC(=O)O)NC(=O)[C@H](CSSC[C@H](NC(=O)[C@@H](N)Cc4ccc(O)cc4)C(=O)N[C@@H](CCC(N)=O)C(=O)N[C@@H](CCCCN)C(=O)N[C@@H](Cc4c[nH]c5ccccc45)C(=O)N[C@@H](CCCC)C(=O)N[C@@H](Cc4c[nH]c5ccccc45)C(=O)N[C@@H]([C@@H](C)O)C(=O)N2)NC(=O)[C@H](CSSC[C@@H](C(=O)N[C@@H](CCCNC(=N)N)C(=O)N[C@@H](CCCCN)C(=O)N[C@@H](CCC(=O)O)C(=O)N[C@H](C(N)=O)[C@@H](C)CC)NC(=O)[C@H](Cc2c[nH]c4ccccc24)NC(=O)[C@H](CC(C)C)NC(=O)[C@H](CCCCN)NC3=O)NC(=O)[C@H](C)NC(=O)[C@H](CCCNC(=N)N)NC1=O [compound 879] | 1.35 | – | – |
| CCCC[C@@H]1NC(=O)[C@H](Cc2c[nH]c3ccccc23)NC(=O)[C@H](CCCCN)NC(=O)[C@H](CCC(N)=O)NC(=O)[C@@H](NC(=O)[C@H](Cc2ccc(O)cc2)NC(=O)[C@@H](N)CC#N)CSSC[C@@H]2NC(=O)[C@@H]3CSSC[C@@H](C(=O)N[C@@H](CCCNC(=N)N)C(=O)N[C@@H](CCCCN)C(=O)N[C@@H](CCC(=O)O)C(=O)N[C@H](C(N)=O)[C@@H](C)CC)NC(=O)[C@H](Cc4c[nH]c5ccccc45)NC(=O)[C@H](CC(C)C)NC(=O)[C@H](CCCCN)NC(=O)[C@H](CSSC[C@H](NC(=O)[C@H]([C@@H](C)O)NC(=O)[C@H](Cc4c[nH]c5ccccc45)NC1=O)C(=O)N[C@@H](CC(=O)O)C(=O)N[C@@H](CO)C(=O)N[C@@H](CCCCN)C(=O)N[C@@H](CCCNC(=N)N)C(=O)N[C@@H](C)C(=O)N3)NC(=O)[C@H](CCCNC(=N)N)NC(=O)[C@H](CC(C)C)NC(=O)CNC(=O)[C@H](Cc1cn(CCCCCCCCCCCCCCC(=O)O)nn1)NC2=O [compound 895] | – | – | IC50: 260 nM |
| CCCC[C@@H]1NC(=O)[C@H](Cc2c[nH]c3ccccc23)NC(=O)[C@H](CCCCN)NC(=O)[C@H](CCC(N)=O)NC(=O)[C@@H](NC(=O)[C@H](Cc2ccc(O)cc2)NC(=O)[C@@H](N)CC#N)CSSC[C@@H]2NC(=O)[C@@H]3CSSC[C@@H](C(=O)N[C@@H](CCCNC(=N)N)C(=O)N[C@@H](CCCCN)C(=O)N[C@@H](CCC(=O)O)C(=O)N[C@@H](Cc4c[nH]c5ccccc45)C(N)=O)NC(=O)[C@H](Cc4c[nH]c5ccccc45)NC(=O)[C@H](CC(C)C)NC(=O)[C@H](CCCCN)NC(=O)[C@H](CSSC[C@H](NC(=O)[C@H]([C@@H](C)O)NC(=O)[C@H](Cc4c[nH]c5ccccc45)NC1=O)C(=O)N[C@@H](CC(=O)O)C(=O)N[C@@H](CO)C(=O)N[C@@H](CCCCN)C(=O)N[C@@H](CCCNC(=N)N)C(=O)N[C@@H](C)C(=O)N3)NC(=O)[C@H](CCCNC(=N)N)NC(=O)[C@H](CC(C)C)NC(=O)CNC(=O)[C@H](CCCCNC(=O)CCOCCOCCOCCOCCOCCOCCOCCOCCOCCOCCOCCOCCN)NC2=O [compound 459] | – | 27 | – |
| C#CC[C@H](N)C(=O)N[C@@H](Cc1ccc(O)cc1)C(=O)N[C@H]1CSSC[C@@H]2NC(=O)[C@@H]3CSSC[C@@H](C(=O)N[C@@H](CCCNC(=N)N)C(=O)N[C@@H](CCCCN)C(=O)N[C@H](C(=O)N[C@H](C(N)=O)[C@@H](C)CC)[C@@H](C)CC)NC(=O)[C@H](Cc4c[nH]c5ccccc45)NC(=O)[C@H](CC(C)C)NC(=O)[C@H](CCCCN)NC(=O)[C@H](CSSC[C@H](NC(=O)[C@H]([C@@H](C)O)NC(=O)[C@H](Cc4c[nH]c5ccccc45)NC(=O)[C@H](CCCC)NC(=O)[C@H](Cc4c[nH]c5ccccc45)NC(=O)[C@H](CCCCN)NC(=O)[C@H](CCC(N)=O)NC1=O)C(=O)N[C@@H](CC(=O)O)C(=O)N[C@@H](CO)C(=O)N[C@@H](CCCCN)C(=O)N[C@@H](CCCNC(=N)N)C(=O)N[C@@H](C)C(=O)N3)NC(=O)[C@H](Cc1ccc(O)cc1)NC(=O)[C@H](CC(C)C)NC(=O)CNC(=O)[C@H](CCC(=O)O)NC2=O [compound 682] | 5.98 | – | – |
| CCCC[C@@H]1NC(=O)[C@H](Cc2c[nH]c3ccccc23)NC(=O)[C@H](CCCCN)NC(=O)[C@H](CCC(N)=O)NC(=O)[C@@H](NC(=O)[C@H](Cc2ccc(O)cc2)NC(=O)[C@@H](N)CC#N)CSSC[C@@H]2NC(=O)[C@@H]3CSSC[C@@H](C(=O)N[C@@H](CCCNC(=N)N)C(=O)N[C@@H](CCCCN)C(=O)N[C@@H](CCC(=O)O)C(=O)N[C@H](C(N)=O)[C@@H](C)CC)NC(=O)[C@H](Cc4c[nH]c5ccccc45)NC(=O)[C@H](CC(C)C)NC(=O)[C@H](CCCCN)NC(=O)[C@H](CSSC[C@H](NC(=O)[C@H]([C@@H](C)O)NC(=O)[C@H](Cc4c[nH]c5ccccc45)NC1=O)C(=O)N[C@@H](CC(=O)O)C(=O)N[C@@H](CCCCNC(=O)CCOCCOCCOCCOCCOCCOCCOCCOCCOCCOCCOCCOCCN)C(=O)N[C@@H](CCCCN)C(=O)N[C@@H](CCCNC(=N)N)C(=O)N[C@@H](C)C(=O)N3)NC(=O)[C@H](CCCNC(=N)N)NC(=O)[C@H](CC(C)C)NC(=O)CNC(=O)[C@H](CCC(=O)O)NC2=O [compound 565] | – | 75 | – |
| C#CC[C@H](N)C(=O)N[C@@H](Cc1ccc(O)cc1)C(=O)N[C@H]1CSSC[C@@H]2NC(=O)[C@@H]3CSSC[C@@H](C(=O)N[C@@H](CCCNC(=N)N)C(=O)N[C@@H](CCCCN)C(=O)N[C@@H](CCC(=O)O)C(=O)N[C@H](C(N)=O)[C@@H](C)CC)NC(=O)[C@H](Cc4c[nH]c5ccccc45)NC(=O)[C@H](CC(C)C)NC(=O)[C@H](CCCCN)NC(=O)[C@H](CSSC[C@H](NC(=O)[C@H]([C@@H](C)O)NC(=O)[C@H](Cc4c[nH]c5ccccc45)NC(=O)[C@H](CCCC)NC(=O)[C@H](Cc4c[nH]c5ccccc45)NC(=O)[C@H](CCCCN)NC(=O)[C@H](CCC(N)=O)NC1=O)C(=O)N[C@@H](CC(=O)O)C(=O)N[C@@H](CO)C(=O)N[C@@H](CCCCN)C(=O)N[C@@H](CCCNC(=N)N)C(=O)N[C@@H](C)C(=O)N3)NC(=O)[C@H](CCCNC(=N)N)NC(=O)[C@H](C)NC(=O)CNC(=O)[C@H](CCC(=O)O)NC2=O [compound 703] | > 1000 | – | – |
| CCCC[C@@H]1NC(=O)[C@H](Cc2c[nH]c3ccccc23)NC(=O)[C@H](CCCCN)NC(=O)[C@H](CCC(N)=O)NC(=O)[C@@H](NC(=O)[C@H](CCCCNC(=O)CCOCCOCCOCCOCCOCCOCCOCCOCCOCCOCCOCCOCCN)NC(=O)[C@@H](N)CC#N)CSSC[C@@H]2NC(=O)[C@@H]3CSSC[C@@H](C(=O)N[C@@H](CCCNC(=N)N)C(=O)N[C@@H](CCCCN)C(=O)N[C@@H](CCC(=O)O)C(=O)N[C@H](C(N)=O)[C@@H](C)CC)NC(=O)[C@H](Cc4c[nH]c5ccccc45)NC(=O)[C@H](CC(C)C)NC(=O)[C@H](CCCCN)NC(=O)[C@H](CSSC[C@H](NC(=O)[C@H]([C@@H](C)O)NC(=O)[C@H](Cc4c[nH]c5ccccc45)NC1=O)C(=O)N[C@@H](CC(=O)O)C(=O)N[C@@H](CO)C(=O)N[C@@H](CCCCN)C(=O)N[C@@H](CCCNC(=N)N)C(=O)N[C@@H](C)C(=O)N3)NC(=O)[C@H](CCCNC(=N)N)NC(=O)[C@H](CC(C)C)NC(=O)CNC(=O)[C@H](CCC(=O)O)NC2=O [compound 563] | – | 126 | – |
| CCCC[C@@H]1NC(=O)[C@H](Cc2c[nH]c3ccccc23)NC(=O)[C@H](CCCCN)NC(=O)[C@H](CCC(N)=O)NC(=O)[C@@H](NC(=O)[C@H](Cc2ccc(O)cc2)NC(=O)[C@@H](N)CCC)CSSC[C@@H]2NC(=O)[C@@H]3CSSC[C@@H](C(=O)N[C@@H](CCCNC(=N)N)C(=O)N[C@@H](CCCCN)C(=O)N[C@H](C(=O)N[C@H](C(N)=O)[C@@H](C)CC)[C@@H](C)CC)NC(=O)[C@H](Cc4c[nH]c5ccccc45)NC(=O)[C@H](CC(C)C)NC(=O)[C@H](CCCCN)NC(=O)[C@H](CSSC[C@H](NC(=O)[C@H]([C@@H](C)O)NC(=O)[C@H](Cc4c[nH]c5ccccc45)NC1=O)C(=O)N[C@@H](CC(=O)O)C(=O)N[C@@H](CO)C(=O)N[C@@H](CCCCN)C(=O)N[C@@H](CCCNC(=N)N)C(=O)N[C@@H](C)C(=O)N3)NC(=O)[C@H](CCCNC(=N)N)NC(=O)[C@H](CC(C)C)NC(=O)CNC(=O)[C@H](CCC(=O)O)NC2=O [compound 369] | – | 552 | Nav1.5/Nav1.7 [2]: 23418 |
| C#CC[C@H](N)C(=O)N[C@@H](Cc1ccc(O)cc1)C(=O)N[C@H]1CSSC[C@@H]2NC(=O)[C@@H]3CSSC[C@@H](C(=O)N[C@@H](CCCNC(=N)N)C(=O)N[C@@H](CCCCN)C(=O)N[C@@H](CCCC)C(=O)N[C@H](C(N)=O)[C@@H](C)CC)NC(=O)[C@H](Cc4c[nH]c5ccccc45)NC(=O)[C@H](CC(C)C)NC(=O)[C@H](CCCCN)NC(=O)[C@H](CSSC[C@H](NC(=O)[C@H]([C@@H](C)O)NC(=O)[C@H](Cc4c[nH]c5ccccc45)NC(=O)[C@H](CCCC)NC(=O)[C@H](Cc4c[nH]c5ccccc45)NC(=O)[C@H](CCCCN)NC(=O)[C@H](CCC(N)=O)NC1=O)C(=O)N[C@@H](CC(=O)O)C(=O)N[C@@H](CO)C(=O)N[C@@H](CCCCN)C(=O)N[C@@H](CCCNC(=N)N)C(=O)N[C@@H](C)C(=O)N3)NC(=O)[C@H](CCCNC(=N)N)NC(=O)[C@H](CC(C)C)NC(=O)CNC(=O)[C@H](CCC(=O)O)NC2=O [compound 664] | 0.339 | – | – |
| C#CC[C@H](N)C(=O)N[C@@H](Cc1ccc(O)cc1)C(=O)N[C@H]1CSSC[C@@H]2NC(=O)[C@@H]3CSSC[C@@H](C(=O)N[C@@H](CCCNC(=N)N)C(=O)N[C@@H](CCCCN)C(=O)N[C@@H](Cc4c[nH]cn4)C(=O)N[C@H](C(N)=O)[C@@H](C)CC)NC(=O)[C@H](Cc4c[nH]c5ccccc45)NC(=O)[C@H](CC(C)C)NC(=O)[C@H](CCCCN)NC(=O)[C@H](CSSC[C@H](NC(=O)[C@H]([C@@H](C)O)NC(=O)[C@H](Cc4c[nH]c5ccccc45)NC(=O)[C@H](CCCC)NC(=O)[C@H](Cc4c[nH]c5ccccc45)NC(=O)[C@H](CCCCN)NC(=O)[C@H](CCC(N)=O)NC1=O)C(=O)N[C@@H](CC(=O)O)C(=O)N[C@@H](CO)C(=O)N[C@@H](CCCCN)C(=O)N[C@@H](CCCNC(=N)N)C(=O)N[C@@H](C)C(=O)N3)NC(=O)[C@H](CCCNC(=N)N)NC(=O)[C@H](CC(C)C)NC(=O)CNC(=O)[C@H](CCC(=O)O)NC2=O [compound 652] | 0.371 | – | – |
